SMILES strings stand for the structures.

Broadly, the Kb is the affinity of an antagonist, worked out from how it opposes an agonist.

Test [1] concerns the target T1, human OX1 receptor (Homo sapiens, UniProt O43613).
T1 sequence (O43613 1-425): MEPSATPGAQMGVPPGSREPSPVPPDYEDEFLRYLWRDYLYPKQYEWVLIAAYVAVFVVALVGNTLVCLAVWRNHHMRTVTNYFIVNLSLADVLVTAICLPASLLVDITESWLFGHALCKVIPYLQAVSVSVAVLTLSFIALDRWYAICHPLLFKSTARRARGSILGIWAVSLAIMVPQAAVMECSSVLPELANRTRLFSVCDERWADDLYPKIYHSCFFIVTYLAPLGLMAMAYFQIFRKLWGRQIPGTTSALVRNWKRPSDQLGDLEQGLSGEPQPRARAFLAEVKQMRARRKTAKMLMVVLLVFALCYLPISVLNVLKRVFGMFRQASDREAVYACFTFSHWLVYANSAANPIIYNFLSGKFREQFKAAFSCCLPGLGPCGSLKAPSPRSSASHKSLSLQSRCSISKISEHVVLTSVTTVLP
The test can be described thus: FLIPR measurement of intracellular calcium, antagonistic activity at OX1. The conditions noted are these: for selectivity against the OX1 receptor: OX1 versus OX2, from the pKb table; for Kb: pKb OX1, CHO cells with human recombinant OX1, activated with orexin-A 3 nM, 1 nM-1 μM range, modified Cheng Prusoff. For orientation: A change in cytosolic calcium serves as a functional read-out for many receptors and channels.
Protocol: (§1) Thus the plate was loaded with the calcium dye (Fluo-4NW/probenecid in HBSS, Hepes 20 mM, pH 7,4; Invitrogen) at 37° C. for 60 min. Afterward the temperature was equilibrated at 22° C. for 15 min and the [Ca2+]i measured directly on the plate by using a fluorescent plate reader (CeliLux Perkin Elmer).
(§2) After 5 min CHO cells were activated with orexin-A, 3 nM while HEK-293 cells were activated with orexin-B, 10 nM.
(§3) The antagonistic activity has been expressed as pKb (co-logarithm of the apparent dissociation constant calculated by using the modified Cheng Prusoff equation).

In test [2] the target is T2, human OX2 receptor (Homo sapiens, UniProt O43614).
T2 sequence (O43614 1-444): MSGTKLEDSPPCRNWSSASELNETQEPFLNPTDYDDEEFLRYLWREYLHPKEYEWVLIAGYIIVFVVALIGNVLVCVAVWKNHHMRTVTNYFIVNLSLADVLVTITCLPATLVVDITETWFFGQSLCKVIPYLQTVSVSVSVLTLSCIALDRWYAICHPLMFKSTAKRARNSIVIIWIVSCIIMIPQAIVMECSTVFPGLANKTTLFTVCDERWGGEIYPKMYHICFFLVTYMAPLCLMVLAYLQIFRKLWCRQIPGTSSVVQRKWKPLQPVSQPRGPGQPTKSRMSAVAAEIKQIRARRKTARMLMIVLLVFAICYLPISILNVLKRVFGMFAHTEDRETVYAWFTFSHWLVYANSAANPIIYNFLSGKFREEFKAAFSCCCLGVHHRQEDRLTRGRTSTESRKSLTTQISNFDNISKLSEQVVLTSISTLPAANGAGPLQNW
The test can be described thus: FLIPR measurement of intracellular calcium, antagonistic activity at OX2.
Protocol: as §1, §2, §3

As to `Cc1nc(C(=O)N2CCC3(CC3)CC2CNc2ccc(C(F)(F)F)cn2)c(-c2ccccc2)s1` (single isomer, unassigned) [Compound 8, (2-methyl-5-phenylthiazol-4-yl)(5-((5-(trifluoromethyl)pyridin-2-ylamino)methyl)-6-azaspiro[2.5]octan-6-yl)methanone], in test [1], the “selectivity against the OX1 receptor” value is “same behaviour” and the antagonist equilibrium constant (Kb) is 20 nM. In addition, the Kb in test [2] was more than 10000 nM.
On to `Cc1nc(C(=O)N2CCC3(CC3)C[C@H]2CNc2cccc(C(F)(F)F)n2)c(-c2ccccc2)s1` [Compound 18, (S)-(2-methyl-5-phenylthiazol-4-yl)(5-(((6-(trifluoromethyl)pyridin-2-yl)amino)methyl)-6-azaspiro[2.5]octan-6-yl)methanone], for which the antagonist dissociation constant (Kb) in test [1] was 50.1 nM; in test [2], more than 10000 nM.
For `Cc1ccc(-c2ncccn2)c(C(=O)N2CC3(CC3)C[C@H]2CNc2ccc(Cl)cn2)c1` [Compound 51, (S)-(6-(((5-chloropyridin-2-yl)amino)methyl)-5-azaspiro[2.4]heptan-5-yl)(5-methyl-2-(pyrimidin-2-yl)phenyl)methanone], in that order: 6.31 nM and more than 10000 nM.
For `Cc1cc(C)nc(NC[C@@H]2CC3(CCN2C(=O)c2ccccc2-c2ccccc2)CC3)n1` [Compound 35, (S)-[1,1′-biphenyl]-2-yl(5-(((4,6-dimethylpyrimidin-2-yl)amino)methyl)-6-azaspiro[2.5]octan-6-yl)methanone], in that order: 5.01 nM and 79.4 nM.
For `COC(=O)c1cc(Cl)ccc1NCC1CC2(CCN1C(=O)c1nc(C)sc1-c1ccc(F)cc1)CC2` (racemic) [Compound 15, (±)methyl 5-chloro-2-((6-(5-(4-fluorophenyl)-2-methylthiazole-4-carbonyl)-6-azaspiro[2.5]octan-5-yl)methylamino)benzoate], in that order: 126 nM and more than 10000 nM.
Regarding `Cc1nc(C(=O)N2CCC3(CC3)C[C@H]2CNc2cccc(Cl)n2)c(-c2ccccc2)s1` [Compound 17, (S)-(5-(((6-chloropyridin-2-yl)amino)methyl)-6-azaspiro[2.5]octan-6-yl)(2-methyl-5-phenylthiazol-4-yl)methanone], the figures for the Kb in test [1] and in test [2] were 31.6 nM and more than 10000 nM, respectively.
For `Cc1cc(C)nc(NC[C@@H]2CC3(CCN2C(=O)c2nc(C)sc2-c2ccccc2)CC3)n1` [Compound 22, (S)-(5-(((4,6-dimethylpyrimidin-2-yl)amino)methyl)-6-azaspiro[2.5]octan-6-yl)(2-methyl-5-phenylthiazol-4-yl)methanone] the same measures were 20 nM and more than 10000 nM.
With `Cc1ccnc(NC[C@@H]2CC3(CCN2C(=O)c2ccccc2-c2ccccc2)CC3)n1` [Compound 39, (S)-[1,1′-biphenyl]-2-yl(5-(((4-methylpyrimidin-2-yl)amino)methyl)-6-azaspiro[2.5]octan-6-yl)methanone], the Kb in test [1] is 12.6 nM; in test [2], more than 10000 nM.
Regarding `Cc1cccc(NCC2CC3(CCN2C(=O)c2nc(C)sc2-c2ccccc2)CC3)n1` (racemic) [Compound 1, (±) (2-methyl-5-phenylthiazol-4-yl)(5-((6-methylpyridin-2-ylamino)methyl)-6-azaspiro[2.5]octan-6-yl)methanone], in test [1], the “selectivity against the OX1 receptor” value is reported as “same behaviour”. For the same compound, the antagonist equilibrium constant (Kb) in test [2] is more than 10000 nM.
In the case of `Cc1cccc(NCC2CCCCN2C(=O)c2nc(C)sc2-c2ccc(F)cc2)n1` (stereo not shown) [comparison 5, reference compound], the Kb in test [1] was 3.16 nM; in test [2], 3.98 nM.
On to `O=C(c1ccccc1OCC1CC1)N1CCCCC1CNc1ccc(Cl)cn1` (stereo not shown) [comparison 4, reference compound], for which the antagonist dissociation constant (Kb) in test [1] was 3.16 nM; in test [2], 158 nM.
For the compound `Cc1cc(C)nc(NC[C@@H]2CC3(CCN2C(=O)c2cc(Cl)ccc2Cl)CC3)n1` [Compound 37, (S)-(2,5-dichlorophenyl)(5-(((4,6-dimethylpyrimidin-2-yl)amino)methyl)-6-azaspiro[2.5]octan-6-yl)methanone], in test [2], the Kb was more than 10000 nM.
On to `Cc1cccc(NCC2CCCCN2C(=O)c2nc(C)sc2-c2ccccc2)n1` (stereo not shown) [comparison 3, reference compound], for which the results for the antagonist dissociation constant (Kb) in test [1] and in test [2] were 1 nM and 3.16 nM, respectively.
Consider `Cc1nc(C(=O)N2CCCCC2CNc2ccc(Cl)cn2)c(-c2ccccc2)s1` (stereo not shown) [comparison 2, reference compound], for which the results for the Kb in test [1] and in test [2] were 10 nM and 25.1 nM, respectively.
Turning to `Cc1ccc(-n2nccn2)c(C(=O)N2CC3(CC3)C[C@H]2CNc2cccc(C)n2)c1` [Compound 50, (S)-(5-methyl-2-(2H-1,2,3-triazol-2-yl)phenyl)(6-(((6-methylpyridin-2-yl)amino)methyl)-5-azaspiro[2.4]heptan-5-yl)methanone], the Kb is 79.4 nM in test [1] and more than 10000 nM in test [2].
For `Cc1nc(C(=O)N2CCC3(CC3)CC2CNc2ccc(Cl)cn2)c(-c2ccccc2)s1` (single isomer, unassigned) [Compound 5, (5-((5-chloropyridin-2-ylamino)methyl)-6-azaspiro[2.5]octan-6-yl)(2-methyl-5-phenylthiazol-4-yl)methanone], in that order: 12.6 nM and more than 1000 nM.
For `O=C(c1ccccc1OCC1CC1)N1CCC2(CC2)CC1CNc1ccc(Cl)cn1` (racemic) [Compound 9, (±) (5-((5-chloropyridin-2-ylamino)methyl)-6-azaspiro[2.5]octan-6-yl)(2-(cyclopropylmethoxy)phenyl)methanone] the same measures were 100 nM and more than 10000 nM.
For `Cc1cccc(NCC2CCCCN2C(=O)c2ccccc2-c2ccccc2)n1` (stereo not shown) [comparison 1, reference compound] the same measures were 126 nM and 31.6 nM.
With `Cc1nc(C(=O)N2CCC3(CC3)CC2CNc2ccc(C(F)(F)F)cn2)c(-c2ccccc2)s1` (racemic) [Compound 7, (±) (2-methyl-5-phenylthiazol-4-yl)(5-((5-(trifluoromethyl)pyridin-2-ylamino)methyl)-6-azaspiro[2.5]octan-6-yl)methanone], in test [1], the “selectivity against the OX1 receptor” value was “same behaviour” and the antagonist equilibrium constant (Kb) is 25.1 nM. Moreover, the Kb in test [2] was more than 10000 nM.
As for `Cc1ccc(-n2nccn2)c(C(=O)N2CC3(CC3)C[C@H]2CNc2ccc(Cl)cn2)c1` [Compound 49, (S)-(6-(((5-chloropyridin-2-yl)amino)methyl)-5-azaspiro[2.4]heptan-5-yl)(5-methyl-2-(2H-1,2,3-triazol-2-yl)phenyl)methanone], the Kb is 7.94 nM in test [1] and more than 10000 nM in test [2].
With `Cc1ccc(-c2ncccn2)c(C(=O)N2CCC3(CC3)C[C@H]2CNc2cccc(Cl)n2)c1` [Compound 41, (S)-(5-(((6-chloropyridin-2-yl)amino)methyl)-6-azaspiro[2.5]octan-6-yl)(5-methyl-2-(pyrimidin-2-yl)phenyl)methanone], the antagonist equilibrium constant (Kb) in test [1] is 63.1 nM.
Still for that read-out and setting: the value for `O=C(c1c(F)cccc1-n1nccn1)N1CCC2(CC2)C[C@H]1CNc1ccc(Cl)cn1` [Compound 31, (S)-(5-(((5-chloropyridin-2-yl)amino)methyl)-6-azaspiro[2.5]octan-6-yl)(2-fluoro-6-(2H-1,2,3-triazol-2-yl)phenyl)methanone] was 15.8 nM.

For the origin of these results see US8859608B2, “Spiro amino compounds suitable for the treatment of inter alia sleep disorders and drug addiction” (Rottapharm Biotech S.R.L., priority 2009, dated 2014).
